According to US10935552B2, “Aie luminogens for visualization and treatment of cancer” (THE HONG KONG UNIVERSITY OF SCIENCE AND TECHNOLOGY, priority 2015, dated 2021):
Structures can show the parent of a compound that is named as a salt.

What was measured:
[1] = test system: MCF-7 cells; test: Photo-bleaching resistance by continuous scanning of stained MCF-7 cells; assay type: cell-based; conditions: MCF-7, 2 μM 30 min, 50 scans, total irradiation 3 min, 0.1 mW
Method: In order to determine the working mechanism of TPE-TMX to MCF-7 cells, probes with long-term tracking are highly pursued. To compare the photo-bleaching resistance between TPE-TMX and LTR, continuous scanning of the stained MCF-7 cells by UV irradiation was carried out and the PL intensity at each scan was recorded. These two sets of MCF-7 cells were first incubated in a medium for 24 hrs and then stained with TPE-TMX and LTR at 2 μM for 30 min, respectively. The excitation power from 405 nm and 561 nm channels of the microscope was unified as 0.1 mW. The initial fluorescence intensity for the dyes was normalized and the percentage of intensity loss was calculated.

[2] = test system: MCF-7 cells; test: Fluorescence microscopy and long-term tracing of MCF-7 cells treated with TPE-TMX; assay type: cell-based; conditions: for Fluorescence of stained cells with increasing number of passages: long-term tracing
From the text: (§1) To examine this hypothesis, fluorescence microscopy of different cell lines treated with TPE-TMX was undertaken. […] Lysosome is an acidic enzyme enriched organelle responsible for digesting intracellular biomolecules, while TPE-TMX with a basic amino group is more favored to target the lysosomes in cells. Once the molecules are accumulated on the surface of lysosome, their intermolecular motions are restricted, which activates the AIE process and thus lights up the organelle.
The whole cells exclude nuclei are highly emissive after the treatment of TPE-TMX for 192 hrs, which is proposed as autophagy. This mechanism is thought to be a degradation system that is mediated by a unique organelle called the autophagosome and then fuses with lysosome to form an autolysosome. Once the autolysosomes are formed, the cells become dysfunctional and eventually cause cell death. […] This is the first time that autophagy can be fluorescently monitored using a theranostic agent for breast cancer cells.

[3] = test system: HeLa cells; test: Photostability by continuous confocal scanning of stained HeLa cells; assay type: cell-based, human
From the text: Compared with LTR, the working concentration of AIE-LysoY is much higher. LTR is not more sensitive than AIE-LysoY. As mentioned previously, LTR can only be used at low concentrations to avoid the ACQ effect. At such a low working concentration, the fluorescent probes molecularly disperse in the organelle and can be easily photooxidized by continuous excitation light, resulting in the low photostability of these probes. In order to evaluate the photostability of AIE-LysoY, a confocal microscope (Zeiss laser scanning confocal microscope LSM7 DUO) was applied to continuously scan cells stained by AIE-LysoY. The photostability of LTR was also measured for comparison. The power of excitation light (405 nm for AIE-LysoY and 561 nm for LTR) were unified by using a power meter. […] In contrast, the fluorescence intensity from LTR dropped to lower than 50% of its initial value after only 25 scans (FIG. 28, hollow circle line). The slight fluctuation of fluorescence signal can be ascribed to the dynamic movement of lysosome in living cells. The excellent photostability of AIE-LysoY may stem from its nanoparticles nature in lysosome imaging, which can protect the chromophore inside the particles from being photooxidzied. In this way, the fluorescence of […] can pertain after a long-time irradiation. […]

[4] = test system: lysosome; test: Lysosome imaging in HeLa cells, co-staining with LTR; assay type: cell-based, human; conditions: HeLa
Method: Then, AIE-LysoY was applied to lysosome imaging and its lysosome-targeting performance was assessed by fluorescence microscope. HeLa cells were stained with 10 μM of AIE-LysoY for 10 min, followed by washing away the abundant molecules of AIE-LysoY and incubation with 50 nM of LTR for 30 min. […] The fluorescence of AIE-LysoY overlaps perfectly with that of LTR, indicating the lysosome-targeting of AIE-LysoY.
Quantitative analysis of the degree of overlapping of these two fluorescence signals by Pearson's coefficient (Rr), which depicts the degree of linear dependence between two variables, gives an overlapping coefficient of 0.90. The high Rr value proves that AIE-LysoY is a lysosome-selective probe. […] Changing the staining time from 10 min to 60 min, the specificity to lysosome is retained, as well as the emission contrast.
To design the lysosome-specific bioprobe, a molecular engineering approach was employed. The precursor of AIE-LysoY, FAS-Br, and two morpholine-functionalized AIEgens, TPE-2Mor and Nred-mor were prepared and applied to cell imaging. The molecular structures of TPE-2mor and Nred-mor are shown below: […]

[5] = MTT cell viability assay, HeLa cells; assay type: cell-based, human; conditions: human, HeLa cells, 15 μM, MTT
Method: Hela cells were incubated with different concentrations of Naph-IQ in culture medium for 24 hours.
Before employing AIE-LysoY as a fluorescent visualizer of lysosome, a 3-(4,5-dimethyl-2-thiazolyl)-2,5-diphenyltetrazolium bromide (MTT) cell proliferation assay was first conducted to evaluate its cytotoxicity. […] The good biocompatibility of AIE-LysoY enables its application as a fluorescent tracer to follow the autophagic process of lysosome.

[6] = test system: ER independent breast cancer cells (MDA-MB-231 cells); test: MTT cytotoxicity of TPE-TMX, MDA-MB-231 cells; assay type: cell-based; conditions: MDA-MB-231, up to 10 μM
Method: (§2) For the rational molecular design of TPE-TMX, it is extremely critical that it can restore its therapeutic ability as TMX after the modification. To investigate its therapeutic performance, the cytotoxicity of TPE-TMX to a variety of cell lines was evaluated using a MTT assay (FIG. 33). […] Therefore, TPE-TMX may form a complex with receptor that can manifest selective accumulation in MCF-7 cells and lead to cell death.

[7] = test system: ER+ breast cancer cells (MCF-7 cells); test: MTT cytotoxicity of TPE-TMX, MCF-7 cells; assay type: cell-based
Method: as §2

[8] = test system: a variety of cell lines; test: MTT cytotoxicity of TPE-TMX, other cell lines; assay type: cell-based; conditions: up to 10 μM
Method: as §2

[9] = test system: MCF-7 cells; test: Lysosomal imaging in MCF-7 cells, co-staining with LTR; assay type: cell-based
Method: The behavior of TPE-TMX in cellular settings was studied as compared to TMX. MCF-7 cells were incubated with 2 μM TPE-TMX and […] TMX for 24 hrs, respectively. The cells were then washed and directly observed under the microscope without fixation. […] However, the exact intracellular location of TMX cannot be confirmed by fluorescent microscopy because its emission wavelength is not in the range of the visible spectrum. Therefore, a series of commercial fluorescent markers were used to image drug delivery of TMX. […] On the other hand, TPE-TMX, without any aid of fluorescent dye, can be successfully monitored in the cells thanks to its intense blue emission. The controls display no emission under UV irradiation.
To further confirm the subcellular distribution of TPE-TMX, LTR was also used to co-stain MCF-7 cells with TPE-TMX. […] As expected, TPE-TMX is a specific fluorescent dye to visualize lysosomal organelle structures as well as monitor the drug release.

[10] = test system: different cell lines; test: Fluorescence microscopy of different cell lines treated with TPE-TMX; assay type: cell-based
From the text: as §1

[11] = cited from earlier work
[12] = test system: HeLa cells; test: Cancer cell imaging for HeLa cells by IDA-TPE; assay type: cell-based, human; conditions: 10 μM, 30 mins
Method: Cell Culture. HeLa cells were cultured in MEM containing 10% FBS and 1% antibiotics (100 units/mL penicillin and 100 µg/mL streptomycin) in a 5% CO2 humidity incubator at 37° C.
The HeLa cells were grown overnight on a 35 mm petri dish with a cover slip. […] The cells were imaged under a fluorescent microscope (BX41 Microscope) using same excitation and emission filters: excitation filter=330-385 nm, dichroic mirror=420 nm, and emission filter=400 nm long pass.

[13] = test system: HeLa cells; test: Autophagy induction by rapamycin in AIE-LysoY-stained HeLa cells; assay type: cell-based, human; conditions: HeLa stained with 10 μM AIE-LysoY, prolonged rapamycin treatment
[14] = test system: Lung cancer cell A549; test: Cancer cell imaging for lung cancer cell A549 by TTE; assay type: cell-based; conditions: A549, 10 μM TTE, 15 mins
Method: (§3) Cell Culture. HeLa cells were cultured in MEM containing 10% FBS and 1% antibiotics (100 units/mL penicillin and 100 µg/mL streptomycin) in a 5% CO2 humidity incubator at 37° C. Cell Imaging. Lung cancer cell A549 were cultured in DMEM containing 10% FBS and antibiotics (100 units/mL penicillin and 100 µg/mL streptomycin) in a 5% CO2 humidity incubator at 37° C. Two different kind of cells were grown overnight on a 35 mm petri dish with a cover slip. The live cells were incubated with 10 μM of TTE for 15/30 mins, TFE for 30′ and fl-TFE for 30′ and 5 h (the last two have been tested only in HeLa cells). In a typical experiment, 2 μL of a 10 mM stock solution of TTE in DMSO were diluted to 1 mL with cell culture medium, followed by further dilution to desired concentration. The cells were imaged under a fluorescent microscope (BX41 Microscope) using same excitation and emission filters: excitation filter=330-385 nm, dichroic mirror=420 nm, and emission filter=400 nm long pass.
The A549 cells were grown overnight on a 35 mm petri dish with a cover slip. The live cells were incubated with 10 μM of TTE for 30 mins. The A549 cells were incubated with 10 μM TTE and 1 μg/mL for 15 mins.

[15] = test system: HeLa cells; test: Cancer cell imaging for HeLa cells (TTE, TFE, fl-TFE); assay type: cell-based, human
Method: as §3
The HeLa cells were grown overnight on a 35 mm petri dish with a cover slip. The live cells were incubated with 10 μM of TTE for 30 mins, which are shown in FIG. 17A-B. The HeLa cells were incubated with 50 μM oleic acid for 6 hrs and then were co-stained by 10 μM TTE and 1 μg/mL for 15 mins.

CN(C)CCNC(=O)CCc1ccc2n1[B-](F)(F)[N+]1=C(c3ccc[nH]3)C=CC1=C2 [LTR, reference compound]
PL signal loss [1]: more than 55% | Fluorescence of stained cells with increasing number of passages [2]: dramatically weakened | Fluorescence intensity relative to initial value ([3]; 561 nm, after 25 scans): lower than 50%

Oc1cc(OCCCCCCN2CCOCC2)ccc1/C=N/N=C1c2ccccc2-c2ccccc21 [AIE-LysoY, (E)-2-(((9H-fluoren-9-ylidene)hydrazono)methyl)-5-((6-morpholinohexyl)oxy) phenol]
Lysosome targeting ([4]; 10 μM 10 min, then 50 nM LTR 30 min): selectively accumulates in the dot-shaped lysosomes | Pearson's coefficient (Rr) of overlap with LTR ([4]; 10 μM AIE-LysoY, 50 nM LTR): 0.90 | viability at 24 h, 15 µM [5]: > 80% | Fluorescence signal after continuous scanning ([3]; 405 nm, total irradiation time ~6 min): almost remain unchanged

CN(C)CCOc1ccc(C(=C(c2ccccc2)c2ccccc2)c2ccccc2)cc1 [TPE-TMX]
Cell viability by MTT [6]: not dramatically altered | PL signal loss [1]: no significant PL loss | Cytotoxicity (therapeutic response) by MTT [7]: has only the therapeutic response to ER+ breast cancer cells (MCF-7 cells) | Morphological effect ([2]; MCF-7): induces the formation of vacuole, lysosomal swelling and cell death | Effect on cells in continuous monitoring ([2]; MCF-7, 2 μM): induce vacuoles, lysosome swelling, and loss of the cell population | Fluorescence intensity in cells ([2]; MCF-7 versus other cell lines): more prominent in MCF-7 cells compared to the others | Fluorescence of stained cells with increasing number of passages [2]: increases with increasing number of passages | Cell viability by MTT [8]: not dramatically altered | Subcellular distribution ([9]; MCF-7, 2 μM 30 min, then LTR 15 min): selectively stains lysosomes | Pearson correlation coefficient of co-localization with LTR (r) ([9]; MCF-7, 2 μM TPE-TMX): 0.96 | Subcellular localisation ([10]; all tested cell lines): localized on lysosomes in all tested cell lines | Morphological effect ([10]; other cell lines): no obvious morphological change

O=C(O)C(F)(F)F [TFA, trifluoroacetic acid]
pKa [11]: about −0.3

O=C(O)CN(CC(=O)O)Cc1ccc(C(=C(c2ccccc2)c2ccccc2)c2ccccc2)cc1 [IDA-TPE, iminodiacetic acid tetraphenylethene]
Cell uptake [12]: can go inside the cancer cell | Fluorescence staining of cells [12]: can target HeLa cells

CO[C@H]1C[C@@H]2CC[C@@H](C)[C@@](O)(O2)C(=O)C(=O)N2CCCC[C@H]2C(=O)O[C@H]([C@H](C)C[C@@H]2CC[C@@H](O)[C@H](OC)C2)CC(=O)[C@H](C)/C=C(\C)[C@@H](O)[C@@H](OC)C(=O)[C@H](C)C[C@H](C)/C=C/C=C/C=C/1C [rapamycin]
Lysosome number (yellow spots) [13]: increased

c1csc(C(=C(c2cccs2)c2cccs2)c2cccs2)c1 [TTE, TetraThienylEthene]
Organelle selectivity (overlap with BODIPY) [14]: can selectively target lipid droplets | Ability to enter cells as bioprobe ([15]; 10 μM, TTE in HeLa and A549, TFE and fl-TFE only in HeLa): the only one able to enter inside the cells | Organelle selectivity (overlap with BODIPY) ([15]; HeLa, 50 μM oleic acid 6 hrs, 10 μM TTE, 15 mins): can selectively target lipid droplets
